Measurements: ChEMBL document CHEMBL3352098, “A class of 4-sulfamoylphenyl-ω-aminoalkyl ethers with effective carbonic anhydrase inhibitory action and antiglaucoma effects” (J Med Chem, 2014)
Active and inactive are the calls of the source. The calls are words filed in the database; no cut-off is given here.

target: Carbonic anhydrase 9 (Homo sapiens, UniProt Q16790); experiment: Inhibition of human CA-9 by stopped flow CO2 hydrase assay; conditions: not given

Row | Structure (SMILES) | Ki
1 | NS(=O)(=O)c1ccc(OCCCCNC(=S)Nc2ccc(-c3c4ccc(=O)cc-4oc4cc(O)ccc34)c(C(=O)O)c2)cc1 | 8.8 nM
2 | NS(=O)(=O)c1ccc(OCCCNC(=S)Nc2ccc(-c3c4ccc(=O)cc-4oc4cc(O)ccc34)c(C(=O)O)c2)cc1 | 7.2 nM
3 | NCCCCCOc1ccc(S(N)(=O)=O)cc1 | 6.6 nM
4 | NS(=O)(=O)c1ccc(OCCNC(=S)Nc2ccc(-c3c4ccc(=O)cc-4oc4cc(O)ccc34)c(C(=O)O)c2)cc1 | 8.5 nM
5 | NCCOc1ccc(S(N)(=O)=O)cc1 | 8.7 nM
6 | NCCCCCCOc1ccc(S(N)(=O)=O)cc1 | 6.5 nM
7 | CN(C)c1ccc2c(-c3ccc(NC(=S)NCCOc4ccc(S(N)(=O)=O)cc4)cc3C(=O)O)c3ccc(=[N+](C)C)cc-3oc2c1 | 9.6 nM
8 | CC(C)(C)OC(=O)NCCCCCCOc1ccc(S(N)(=O)=O)cc1 | 6.9 nM
9 | CC(C)(C)OC(=O)NCCCOc1ccc(S(N)(=O)=O)cc1 | 5.8 nM
10 | CN(C)c1ccc2c(-c3ccc(NC(=S)NCCCOc4ccc(S(N)(=O)=O)cc4)cc3C(=O)O)c3ccc(=[N+](C)C)cc-3oc2c1 | 7.9 nM
11 | CC(C)(C)OC(=O)NCCOc1ccc(S(N)(=O)=O)cc1 | 8.3 nM
12 | NCCCOc1ccc(S(N)(=O)=O)cc1 | 17.9 nM
13 | NCCCCOc1ccc(S(N)(=O)=O)cc1 | 32.6 nM
14 | CC(C)(C)OC(=O)NCCCCCOc1ccc(S(N)(=O)=O)cc1 | 7.1 nM

tested on: Oryctolagus cuniculus; experiment: Antiglaucoma activity in New Zealand albino rabbit assessed as reduction in hypertonic saline-induced intraocular pressure at 2% solution administered topically measured after 2 hrs; assay type: functional, organism-based; conditions: Eye

Row | Structure (SMILES) | Activity
15 | CC(C)(C)OC(=O)NCCCCOc1ccc(S(N)(=O)=O)cc1 | Active
16 | NCCCCOc1ccc(S(N)(=O)=O)cc1 | Active
